Experimental data published in US10875845B2, “Compounds and methods for the treatment of ocular disorders” (Azura Ophthalmics Ltd., priority 2019, dated 2020).

What was measured:
[1] = Aqueous Hydrolysis Stability Assay; type: physicochemical; conditions: 100 μM in 50 mM HEPES pH 7.5 buffer or 1:1 Acetonitrile:Water, room temperature
Procedure: Determination of aqueous stability of the test compounds was performed using HPLC-MS. A test compound 10 mM stock solution was prepared in DMSO. 10 μl of the DMSO stock solution was dissolved in 990 μl of 50 mM HEPES pH 7.5 buffer or 1:1 (v/v) of Acetonitrile:Water to make a 100 μM solution. Final DMSO concentration was 1%. The solution was kept at room temperature and injected without delay into the LCMS (Waters Xevo TQ-S or Micromass Ultima). Additional injections were performed at appropriate time points.
Half-life (T1/2) of the parent conjugate was calculated using the peak area of the parent conjugate at each time point in the linear region of the log—linear plot.

[2] = system: Rabbit Cornea Homogenate; assay: Rabbit Cornea Homogenate Stability Assay (rabbit cornea esterase assay); type: in vitro ADME; conditions: 37° C.
Procedure: Determining Rabbit Cornea Homogenate stability of the test compounds was performed using HPLC-MS. The assay was performed at two concentrations of Rabbit Cornea Homogenate (0.15 mg/ml and 0.45 mg/ml total protein) so that any hydrolysis observed could be assigned as esterase dependent or not.
Five rabbit corneas (e.g. New Zealand Whites) of approx. 50 mg each were sliced and scraped with a scalpel and tweezers until reduced to small (1-3 mm), thin pieces. These were transferred into a tared vial and accurately weighed, then diluted with 10 volumes aqueous PBS pH7.4
Sample was cooled intermittently on ice and shear homogenized for 3 minutes, then centrifuged for 3 min at 3000 rpm. The supernatant was pipetted off into a vial, and total protein concentration determined at 280 nm. Sample was stored at −78° C.
10 mM Compound stocks were diluted to 100 μM in a 96 deep-well plate: 10 μl of 10 mM Compound stock was added to 990 μl 50 mM HEPES, pH7.5 buffer.
Compounds were further diluted to 10 μM: 100 μl of 100 μM compound was added to 900 μl 50 mM HEPES, pH7.5 buffer.
Esterase homogenate was diluted to 300 ng/μl and 900 ng/μl
A heater shaker was set to 37° C. Into a suitable 96 well plate (Run Plate), 75 μl of 300 or 900 ng/μl esterase homogenate was pipetted into each of the required wells (2 min, 5 min, 10 min, 20 min and 45 min). The plate was sealed and then warmed at 37° C. for 5 min. Another 96 well PCR plate is put on ice (Kill Plate). To this was added 100 μl of MeCN to each well, labelled 0 min, 2 min, 5 min, 10 min, 20 min and 45 min. The plate was covered to minimise evaporation. For the T=0 sample only, to the 100 μl cold MeCN stop solution was added 50 μl of 300 or 900 ng/μl esterase homogenate followed by 50 μl of 10 μM compound solution For the remaining time points, 75 μl of 10 μM compound solution was added to the Run Plate starting from T=45 min row and ending with T=2 min row. At the appropriate time point, 100 μl of the assay mixture was added to the matching kill plate well containing 100 μl of cold MeCN. Samples were analysed as soon as practicable by LCMS (Waters Xevo TQ-S or Micromass Ultima).
Parent conjugate and parent concentrations were determined against appropriate standard response curves and the half-life (T1/2) of the parent conjugate was calculated using the peak area of the parent conjugate at each time point in the linear region of the log—linear plot.

[3] = Cornea Homogenate Conc 0.15 mg/mL
[4] = Cornea Homogenate Conc 0.45 mg/mL

Compound	Hydrolytic % Lifitegrast formation at [time] ([1]; at 142 min)	API Formation rate [2, 3]	API Formation rate [2, 4]	Esterase % Lifitegrast formation at 45 min [2, 4]	Esterase % Lifitegrast formation at 45 min [2, 3]	Hydrolytic % Lifitegrast formation at [time] ([1]; at 45 min)
CC(=O)OCC(COC(C)=O)COC(=O)OC(C)OC(=O)[C@H](Cc1cccc(S(C)(=O)=O)c1)NC(=O)c1c(Cl)cc2c(c1Cl)CCN(C(=O)c1ccc3ccoc3c1)C2 (stereo partly drawn) [Comp 11, 2-((8S)-10-(2-(benzofuran-6-carbonyl)-5,7-dichloro-1,2,3,4-tetrahydroisoquinolin-6-yl)-5-methyl-8-(3-(methylsulfonyl)benzyl)-3,7,10-trioxo-2,4,6-trioxa-9-azadecyl)propane-1,3-diyl diacetate]	C [142 min] (percent API formation>4%)	b (API formation rate 0.5-1.0%/min)	c (API formation rate 1.0-1.5%/min)	B (percent API formation 25% to 50%)	B (percent API formation 25% to 50%)	
CC(OC(=O)OCC(COC(=O)C(C)(C)C)COC(=O)C(C)(C)C)OC(=O)[C@H](Cc1cccc(S(C)(=O)=O)c1)NC(=O)c1c(Cl)cc2c(c1Cl)CCN(C(=O)c1ccc3ccoc3c1)C2 (stereo partly drawn) [Comp 12, 2-((8S)-10-(2-(benzofuran-6-carbonyl)-5,7-dichloro-1,2,3,4-tetrahydroisoquinolin-6-yl)-5-methyl-8-(3-(methylsulfonyl)benzyl)-3,7,10-trioxo-2,4,6-trioxa-9-azadecyl)propane-1,3-diyl bis(2,2-dimethylpropanoate)]	B [142 min] (percent API formation 1.5-4%)	a (API formation rate<0.5%/min)	a (API formation rate<0.5%/min)	A (percent active pharmaceutical ingredient (API) formation<25%)	A (percent active pharmaceutical ingredient (API) formation<25%)	
CC(=O)OC(C)OC(=O)[C@H](Cc1cccc(S(C)(=O)=O)c1)NC(=O)c1c(Cl)cc2c(c1Cl)CCN(C(=O)c1ccc3ccoc3c1)C2 (stereo partly drawn) [Comp 14, 1-acetoxyethyl (2S)-2-(2-(benzofuran-6-carbonyl)-5,7-dichloro-1,2,3,4-tetrahydroisoquinoline-6-carboxamido)-3-(3-(methylsulfonyl)phenyl) propanoate]	B [142 min] (percent API formation 1.5-4%)	c (API formation rate 1.0-1.5%/min)	d (API formation rate>1.5%/min)	D (percent API formation>75%)	C (percent API formation 51% to 75%)	
CC(OC(=O)CO)OC(=O)[C@H](Cc1cccc(S(C)(=O)=O)c1)NC(=O)c1c(Cl)cc2c(c1Cl)CCN(C(=O)c1ccc3ccoc3c1)C2 (stereo partly drawn) [Comp 19, 1-(2-hydroxyacetoxy)ethyl (2S)-2-(2-(benzofuran-6-carbonyl)-5,7-dichloro-1,2,3,4-tetrahydroisoquinoline-6-carboxamido)-3-(3-(methylsulfonyl)phenyl) propanoate]		b (API formation rate 0.5-1.0%/min)	b (API formation rate 0.5-1.0%/min)	B (percent API formation 25% to 50%)	B (percent API formation 25% to 50%)	B [45 min] (percent API formation 1.5-4%)
CC(OC(=O)CCCC[C@@H]1CCSS1)OC(=O)[C@H](Cc1cccc(S(C)(=O)=O)c1)NC(=O)c1c(Cl)cc2c(c1Cl)CCN(C(=O)c1ccc3ccoc3c1)C2 (stereo partly drawn) [Comp 20, 1-(((S)-2-(2-(benzofuran-6-carbonyl)-5,7-dichloro-1,2,3,4-tetrahydroisoquinoline-6-carboxamido)-3-(3-(methylsulfonyl)phenyl)propanoyl)oxy)ethyl 5-((R)-1,2-dithiolan-3-yl)pentanoate]		a (API formation rate<0.5%/min)	b (API formation rate 0.5-1.0%/min)	B (percent API formation 25% to 50%)	A (percent active pharmaceutical ingredient (API) formation<25%)	A [45 min] (percent active pharmaceutical ingredient (API) formation<1.5%)

The next lines start with results.

Hydrolytic % Lifitegrast formation at [time] ([1]; at 142 min)	API Formation rate [2, 3]	API Formation rate [2, 4]	Esterase % Lifitegrast formation at 45 min [2, 4]	Compound	Esterase % Lifitegrast formation at 45 min [2, 3]	Hydrolytic % Lifitegrast formation at [time] ([1]; at 45 min)
C [142 min] (percent API formation>4%)	b (API formation rate 0.5-1.0%/min)	b (API formation rate 0.5-1.0%/min)	B (percent API formation 25% to 50%)	CC(OC(=O)OCC(CO)CO)OC(=O)[C@H](Cc1cccc(S(C)(=O)=O)c1)NC(=O)c1c(Cl)cc2c(c1Cl)CCN(C(=O)c1ccc3ccoc3c1)C2 (stereo partly drawn) [Comp 10, 1-(((3-hydroxy-2-(hydroxymethyl)propoxy)carbonyl)oxy)ethyl (2S)-2-(2-(benzofuran-6-carbonyl)-5,7-dichloro-1,2,3,4-tetrahydroisoquinoline-6-carboxamido)-3-(3-(methylsulfonyl)phenyl) propanoate]	A (percent active pharmaceutical ingredient (API) formation<25%)	
	d (API formation rate>1.5%/min)	d (API formation rate>1.5%/min)	D (percent API formation>75%)	CCC(=O)OC(C)OC(=O)[C@H](Cc1cccc(S(C)(=O)=O)c1)NC(=O)c1c(Cl)cc2c(c1Cl)CCN(C(=O)c1ccc3ccoc3c1)C2 (stereo partly drawn) [Comp 15, 1-(propionyloxy)ethyl (2S)-2-(2-(benzofuran-6-carbonyl)-5,7-dichloro-1,2,3,4-tetrahydroisoquinoline-6-carboxamido)-3-(3-(methylsulfonyl)phenyl) propanoate]	C (percent API formation 51% to 75%)	B [45 min] (percent API formation 1.5-4%)
C [142 min] (percent API formation>4%)	d (API formation rate>1.5%/min)	d (API formation rate>1.5%/min)	D (percent API formation>75%)	CC(OC(=O)C(C)C)OC(=O)[C@H](Cc1cccc(S(C)(=O)=O)c1)NC(=O)c1c(Cl)cc2c(c1Cl)CCN(C(=O)c1ccc3ccoc3c1)C2 (stereo partly drawn) [Comp 16, 1-(isobutyryloxy)ethyl (2S)-2-(2-(benzofuran-6-carbonyl)-5,7-dichloro-1,2,3,4-tetrahydroisoquinoline-6-carboxamido)-3-(3-(methylsulfonyl)phenyl) propanoate]	D (percent API formation>75%)	
	b (API formation rate 0.5-1.0%/min)	c (API formation rate 1.0-1.5%/min)	C (percent API formation 51% to 75%)	CC(OC(=O)[C@H](Cc1cccc(S(C)(=O)=O)c1)NC(=O)c1c(Cl)cc2c(c1Cl)CCN(C(=O)c1ccc3ccoc3c1)C2)OC(=O)C(C)(C)C (stereo partly drawn) [Comp 17, 1-(((S)-2-(2-(benzofuran-6-carbonyl)-5,7-dichloro-1,2,3,4-tetrahydroisoquinoline-6-carboxamido)-3-(3-(methylsulfonyl)phenyl)propanoyl)oxy)ethyl pivalate]	B (percent API formation 25% to 50%)	A [45 min] (percent active pharmaceutical ingredient (API) formation<1.5%)
	c (API formation rate 1.0-1.5%/min)	d (API formation rate>1.5%/min)	D (percent API formation>75%)	CC(OC(=O)[C@H](Cc1cccc(S(C)(=O)=O)c1)NC(=O)c1c(Cl)cc2c(c1Cl)CCN(C(=O)c1ccc3ccoc3c1)C2)OC(=O)[C@@H](C)O (stereo partly drawn) [Comp 18, 1-(((R)-2-hydroxypropanoyl)oxy) ethyl (2S)-2-(2-(benzofuran-6-carbonyl)-5,7-dichloro-1,2,3,4-tetrahydroisoquinoline-6-carboxamido)-3-(3-(methylsulfonyl)phenyl) propanoate]	C (percent API formation 51% to 75%)	C [45 min] (percent API formation>4%)
